These compounds were tested on xanthurenic acid receptor (assay: Screening: displacement of [3H]-XA binding to synaptic membranes at a fixed concentration). Conditions: not given.
Protocol: If this concentration produces the same or greater displacement than the same concentration of non-radiolabelled XA, then an IC50 is determined. […] The incubation time is 25 min. […] The filters are placed in scintillation vials to which 5 ml of Rotiszint® (Roth) are added and the vials are counted in a Beckman LS6000sc liquid scintillation counter. Specific binding is given as the difference between total binding and nonspecific binding. The percentage inhibition of binding that the synthetic compounds produce is calculated for each compound in relation to its positive control.

Q: With `O=C(O)c1cc(=O)c2ccccc2[nH]1` [Kynurenic acid, reference compound] as the compound, how does the “effect on xanthurenic acid binding, in words” value read?
A: The value was “increase the binding of xanthurenic acid”.

Same assay, conditions: compound at 10 μM; 200 nM [3H]-XA, synaptic membranes

Q: Which “real increase in total binding (potentiation)” value does the source give for `O=C(O)c1cc(=O)c2ccccc2[nH]1` [Kynurenic acid, reference compound] here?
A: The value was “(+70% real increase”.

Same assay, conditions: compound at 10 μM; 200 nM [3H]-XA, synaptic membranes; xanthurenic acid set arbitrarily to 100%

Q: With `CCc1cc(C#N)c2nc(C(=O)O)cc(O)c2c1` [Compound 69d, 8-cyano-6-ethyl-4-hydroxy-quinoline-2-carboxylic acid] as the compound, how does the “% inhibition of XA binding at 10 μM*” value read?
A: Its value is 26%.

Q: How did the “% inhibition of XA binding at 10 μM*” value turn out when `Nc1ccc(-c2ccccc2)c2c(O)cc(C(=O)O)nc12` [Compound 73c, 5-phenyl-8-amino-4-hydroxy-quinoline-2-carboxylic acid] was run?
A: Its value is 69%.

Q: With `Nc1ccc(CCCO)c2c(O)cc(C(=O)O)nc12` [Compound 75c, 5-hydroxypropyl-8-amino-4-hydroxy quinoline-2-carboxylic acid] as the compound, how does the “% inhibition of XA binding at 10 μM*” value read?
A: The value was 31%.

Q: For `Cl.Nc1ccc(N2CCCCC2)c2c(O)cc(C(=O)O)nc12` [Compound 77c, 5-(piperidin-1-yl)-8-amino-4-hydroxy-quinoline-2-carboxylic acid hydrochloride], which “% inhibition of XA binding at 10 μM*” value is on record?
A: The value was 6%.

Q: How did the “% inhibition of XA binding at 10 μM*” value turn out when `Nc1cc(O)cc2c(O)cc(C(=O)O)nc12` [Compound 79d, 6-hydroxy-8-amino-4-hydroxy-quinoline-2-carboxylic acid] was run?
A: Its value is 60%.

Q: How did the “% inhibition of XA binding at 10 μM*” value turn out when `Cl.O=C(O)c1cc(N2CCNCC2)c2cccc(O)c2n1` [Compound 87c, 8-hydroxy-4-(piperazin-1-yl)-quinoline-2-carboxylic acid hydrochloride] was run?
A: Its value is 183%.

Q: For `Cl.Nc1cccc2c(CCc3ccccc3)cc(C(=O)O)nc12` [Compound 94c, 8-amino-4-(2-phenyleth-1-yl)-quinoline-2-carboxylic acid hydrochloride], which “% inhibition of XA binding at 10 μM*” value is on record?
A: Its value is 37%.

Q: How did the “% inhibition of XA binding at 10 μM*” value turn out when `Cl.NCCCc1cc(C(=O)O)nc2c(N)cccc12` [Compound 95c, 8-amino-4-(3-amino-prop-1-yl)-quinoline-2-carboxylic acid hydrochloride] was run?
A: The value was 57%.

Q: With `Cl.Nc1cccc2c(CCCO)cc(C(=O)O)nc12` [Compound 96c, 8-amino-4-(3-hydroxy-prop-1-yl)-quinoline-2-carboxylic acid hydrochloride] as the compound, how does the “% inhibition of XA binding at 10 μM*” value read?
A: Its value is 17%.

Q: `O=C(O)c1cc(O)c2c(C(F)(F)F)ccc(O)c2n1` [Compound 98c, 4,8-dihydroxy-5-trifluoromethyl-quinoline-2-carboxylic acid] was tested. Which “% inhibition of XA binding at 10 μM*” value did it give?
A: The value was 94%.

Q: How did the “% inhibition of XA binding at 10 μM*” value turn out when `Cl.O=C(O)c1cc(N2CCOCC2)c2cccc(O)c2n1` [Compound 99c, 8-hydroxy-4-(morpholin-1-yl)-quinoline-2-carboxylic acid hydrochloride] was run?
A: The value was 220%.

Q: Which “% inhibition of XA binding at 10 μM*” value does the source give for `Cl.O=C(O)c1cc(N2CCCCC2)c2cccc(O)c2n1` [Compound 100c, 8-hydroxy-4-(piperidin-1-yl)-quinoline-2-carboxylic acid hydrochloride] here?
A: Its value is 137%.

Q: With `Cl.Nc1cccc2c(N3CCCCC3)cc(C(=O)O)nc12` [Compound 101c, 8-amino-4-(piperidin-1-yl)-quinoline-2-carboxylic acid hydrochloride] as the compound, how does the “% inhibition of XA binding at 10 μM*” value read?
A: The value was 20%.

Q: `Cl.O=C(O)c1cc(O)c2cccc(N3CCCCC3)c2n1` [Compound 102b, 4-hydroxy-8-(piperidin-1-yl)-quinoline-2-carboxylic acid hydrochloride] was tested. Which “% inhibition of XA binding at 10 μM*” value did it give?
A: Its value is 92%.

Q: How did the “% inhibition of XA binding at 10 μM*” value turn out when `CNc1cccc2c(O)cc(C(=O)O)nc12.Cl` [Compound 103b, 4-hydroxy-8-(methyl)amino-quinoline-2-carboxylic acid hydrochloride] was run?
A: Its value is 3%.

Q: `Cl.O=C(O)c1cc(O)c2cccc(N3CCOCC3)c2n1` [Compound 104b, 4-hydroxy-8-(morpholin-1-yl)-quinoline-2-carboxylic acid hydrochloride] was tested. Which “% inhibition of XA binding at 10 μM*” value did it give?
A: The value was 40%.

Q: How did the “% inhibition of XA binding at 10 μM*” value turn out when `Cl.O=C(O)c1cc(O)c2cccc(N3CCN(Cc4ccccc4)CC3)c2n1` [Compound 105b, 8-(4-benzyl-piperazin-1-yl)-4-hydroxy-quinoline-2-carboxylic acid hydrochloride] was run?
A: Its value is 66%.

Q: `CN(c1ccccc1)c1cccc2c(O)cc(C(=O)O)nc12.Cl` [Compound 106b, 8-[phenyl(methyl)amino]-4-hydroxy-quinoline-2-carboxylic acid hydrochloride] was tested. Which “% inhibition of XA binding at 10 μM*” value did it give?
A: Its value is 29%.

Q: `CN1CCN(c2cccc3c(O)cc(C(=O)O)nc23)CC1.Cl` [Compound 107b, 8-(4-methyl-piperazin-1-yl)4-hydroxy-quinoline-2-carboxylic acid hydrochloride] was tested. Which “% inhibition of XA binding at 10 μM*” value did it give?
A: Its value is 43%.

Q: How did the “% inhibition of XA binding at 10 μM*” value turn out when `Cl.O=C(O)c1cc(O)c2cccc(N3CCNCC3)c2n1` [Compound 108b, 4-hydroxy-8-(piperazin-1-yl)-quinoline-2-carboxylic acid hydrochloride] was run?
A: Its value is 62%.

Q: For `Cl.O=C(O)c1cc(O)c2cccc(Nc3ccccn3)c2n1` [Compound 109b, 4-hydroxy-8-(pyridin-2-yl-amino)-quinoline-2-carboxylic acid hydrochloride], which “% inhibition of XA binding at 10 μM*” value is on record?
A: The value was 112%.

Q: Which “% inhibition of XA binding at 10 μM*” value does the source give for `CN1CCN(c2cc(C(=O)O)nc3c(O)cccc23)CC1.Cl` [Compound 110c, 8-hydroxy-4-(4-methyl-piperazin-1-yl)-quinoline-2-carboxylic acid hydrochloride] here?
A: Its value is 166%.

Q: Which “% inhibition of XA binding at 10 μM*” value does the source give for `O=C(O)c1cc(O)c2cccc(CCc3ccccc3)c2n1` [Compound 111c, 4-hydroxy-8-phenylethyl-quinoline-2-carboxylic acid] here?
A: The value was 109%.

Q: How did the “% inhibition of XA binding at 10 μM*” value turn out when `Nc1cc(Cl)cc2c(O)cc(C(=O)O)nc12` [Compound 117d, 6-chloro-8-amino-4-hydroxy-quinoline-2-carboxylic acid] was run?
A: The value was 97%.

Q: `Nc1cc(CCc2ccccc2)cc2c(O)cc(C(=O)O)nc12` [Compound 118c, 6-phenylethyl-8-amino-4-hydroxy-quinoline-2-carboxylic acid] was tested. Which “% inhibition of XA binding at 10 μM*” value did it give?
A: The value was 66%.

Q: For `NCCCc1cc(N)c2nc(C(=O)O)cc(O)c2c1` [Compound 121c, 6-(3′-aminopropyl)-8-amino-4-hydroxy-quinoline-2-carboxylic acid], which “% inhibition of XA binding at 10 μM*” value is on record?
A: The value was 120%.

Q: For `Cl.Nc1cc(CCc2cccnc2)cc2c(O)cc(C(=O)O)nc12` [Compound 122c, 6-(pyridin-3-yl)ethyl-8-amino-4-hydroxy-quinoline-2-carboxylic acid hydrochloride], which “% inhibition of XA binding at 10 μM*” value is on record?
A: The value was 29%.

Q: How did the “% inhibition of XA binding at 10 μM*” value turn out when `N#CCCCCCc1cc(N)c2nc(C(=O)O)cc(O)c2c1` [Compound 123c, 6-(5′-cyanopentyl)-8-amino-4-hydroxy-quinoline-2-carboxylic acid] was run?
A: Its value is 100%.

Q: Which “% inhibition of XA binding at 10 μM*” value does the source give for `CN1CCN(c2cc(N)c3nc(C(=O)O)cc(O)c3c2)CC1.Cl` [Compound 124b, 6-N-(N-methylpiperazinyl)-8-amino-4-hydroxy-quinoline-2-carboxylic acid hydrochloride] here?
A: The value was 109%.

Q: How did the “% inhibition of XA binding at 10 μM*” value turn out when `O=C(O)c1cc(=O)c2ccccc2[nH]1` [Kynurenic acid, reference compound] was run?
A: Its value is “Potentiation”.
